Measured values taken from EP0025288A1, “Derivatives of monic acid, processes for their preparation, compositions containing them and their preparation” (priority 1979, dated 1981).
In brackets after ≈: the same amount, converted by molar mass.

Assays:
[1] = tested on: Corynebacterium pyogenes CY1; test: MIC, veterinary bacteria; format: cell-based; settings: veterinary bacteria (Table 2), read-out: MIC
[2] = tested on: M. dispar NCTC 10125; test: MIC, anti-mycoplasmal, Friis broth solidified with 0.9% agarose; format: cell-based; settings: 144 h, inoculum 10^3 to 10^5 C.F.U., 6 days incubation at 37°C, read-out: in vitro MIC
[3] = tested on: M. gallisepticum S6; test: as above; format: cell-based; settings: Mycoplasmoides gallisepticum, 144 h, inoculum 10^3 to 10^5 C.F.U., 6 days incubation at 37°C, read-out: in vitro MIC
[4] = Mean serum concentration in neonatal piglets after intramuscular or oral administration; format: in vivo; settings: pig, 50 mg/kg; for concentration at 1 h: 60'
Description: e) Mean serum concentration in neonatal piglets of Examples 4 and 5 after intramuscular or oral administration at 50 mg/kg
Blood levels were assessed in neonatal piglets (2 to 4 animals per group and man bodyweights about 2 kg). The dose was 50 mg/kg (dose solution = 25 mg/ml in 25% ethanol). Doses were given by intramuscular injection and orally by stomach tube. Piglets were bled at intervals up to 8 and at 24 hours, and serum assayed microbiologically (B. subtilis ATCC 6633).

[5] = tested on: M. suipneumoniae UCD 1; test: MIC, anti-mycoplasmal, Friis broth solidified with 0.9% agarose; format: cell-based; settings: Mesomycoplasma hyopneumoniae, UCD1, 144 h, inoculum 10^3 to 10^5 C.F.U., 6 days incubation at 37°C, read-out: in vitro MIC
[6] = tested on: M. pneumoniae ATCC 15492; test: as above; format: cell-based; settings: Mycoplasmoides pneumoniae, ATCC15492, 144 h, inoculum 10^3 to 10^5 C.F.U., 6 days incubation at 37°C, read-out: in vitro MIC
[7] = tested on: M. suipneumoniae NB12; test: as above; format: cell-based; settings: Mesomycoplasma hyopneumoniae, 144 h, inoculum 10^3 to 10^5 C.F.U., 6 days incubation at 37°C, read-out: in vitro MIC
[8] = tested on: M. suipneumoniae NCTC 10110; test: as above; format: cell-based; settings: Mesomycoplasma hyopneumoniae, NCTC10110, 144 h, inoculum 10^3 to 10^5 C.F.U., 6 days incubation at 37°C, read-out: in vitro MIC
[9] = tested on: M. suipneumoniae JF 435; test: as above; format: cell-based; settings: Mesomycoplasma hyopneumoniae, JF435, 144 h, inoculum 10^3 to 10^5 C.F.U., 6 days incubation at 37°C, read-out: in vitro MIC
[10] = Serum binding by ultrafiltration; format: in vitro ADME, pig; settings: pig, serum, compounds at 8 mcg/ml, microbiological assay (B. subtilis ATCC 6633), read-out: % bound to pig serum (converted)
Description: Serum binding was assessed by ultrafiltration of procine serum containing compounds at 8 mcg/ml, and through an Amicon CF50A ultrafiltration cone. Separation of ultrafiltrate was achieved by centrifugation.

[11] = tested on: Strep dysgalaciae SPD1; test: MIC, veterinary bacteria; format: cell-based; settings: veterinary bacteria (Table 2), read-out: MIC
[12] = tested on: Staph aureus B4 (pen resis); test: MIC, veterinary bacteria; format: cell-based; settings: Staphylococcus aureus, veterinary bacteria (Table 2), read-out: MIC
[13] = tested on: Past Haemolytica PA5; test: MIC, veterinary bacteria; format: cell-based; settings: veterinary bacteria (Table 2), read-out: MIC
[14] = tested on: Strep agalactiae SPA1; test: MIC, veterinary bacteria; format: cell-based; settings: veterinary bacteria (Table 2), read-out: MIC
[15] = tested on: Staph aureus Oxford; test: MIC, veterinary bacteria; format: cell-based; settings: Staphylococcus aureus, veterinary bacteria (Table 2), read-out: MIC
[16] = tested on: Bord bronchiseptica BO8; test: MIC, veterinary bacteria; format: cell-based; settings: veterinary bacteria (Table 2), read-out: MIC
[17] = tested on: M. suipneumoniae LABER; test: MIC, anti-mycoplasmal, Friis broth solidified with 0.9% agarose; format: cell-based; settings: Mesomycoplasma hyopneumoniae, 144 h, inoculum 10^3 to 10^5 C.F.U., 6 days incubation at 37°C, read-out: in vitro MIC
[18] = tested on: Past multocida PA2; test: MIC, veterinary bacteria; format: cell-based; settings: veterinary bacteria (Table 2), read-out: MIC
[19] = tested on: Strep suis (group D) SPS11; test: MIC, veterinary bacteria; format: cell-based; settings: veterinary bacteria (Table 2), read-out: MIC
[20] = tested on: M. suipneumoniae J2206/183b; test: MIC, anti-mycoplasmal, Friis broth solidified with 0.9% agarose; format: cell-based; settings: Mesomycoplasma hyopneumoniae, 144 h, inoculum 10^3 to 10^5 C.F.U., 6 days incubation at 37°C, read-out: in vitro MIC
[21] = tested on: Past multocida PA1; test: MIC, veterinary bacteria; format: cell-based; settings: veterinary bacteria (Table 2), read-out: MIC
[22] = tested on: M. suipneumoniae TAM 6N; test: MIC, anti-mycoplasmal, Friis broth solidified with 0.9% agarose; format: cell-based; settings: Mesomycoplasma hyopneumoniae, TAM6N, 144 h, inoculum 10^3 to 10^5 C.F.U., 6 days incubation at 37°C, read-out: in vitro MIC
[23] = tested on: Staph aureus 152 (pen sens); test: MIC, veterinary bacteria; format: cell-based; settings: Staphylococcus aureus, veterinary bacteria (Table 2), read-out: MIC
[24] = tested on: E coli E1; test: MIC, veterinary bacteria; format: cell-based; settings: veterinary bacteria (Table 2), read-out: MIC
[25] = tested on: M. suipneumoniae PW/C/210; test: MIC, anti-mycoplasmal, Friis broth solidified with 0.9% agarose; format: cell-based; settings: Mesomycoplasma hyopneumoniae, 144 h, inoculum 10^3 to 10^5 C.F.U., 6 days incubation at 37°C, read-out: in vitro MIC
[26] = tested on: M. hyorhinis ATCC 25021; test: as above; format: cell-based; settings: Mesomycoplasma hyorhinis, ATCC25021, 144 h, inoculum 10^3 to 10^5 C.F.U., 6 days incubation at 37°C, read-out: in vitro MIC
[27] = tested on: M. hyosynoviae ATCC 25591; test: as above; format: cell-based; settings: 144 h, inoculum 10^3 to 10^5 C.F.U., 6 days incubation at 37°C, read-out: in vitro MIC
[28] = tested on: M. bovis NCTC 10131; test: microbe, parasite or virus in culture; format: cell-based; settings: NCTC10131, 144 h, read-out: in vitro MIC
[29] = tested on: M. suipneumoniae MS 16; test: MIC, anti-mycoplasmal, Friis broth solidified with 0.9% agarose; format: cell-based; settings: Mesomycoplasma hyopneumoniae, MS16, 144 h, inoculum 10^3 to 10^5 C.F.U., 6 days incubation at 37°C, read-out: in vitro MIC
[30] = tested on: E coli NCTC 10418; test: MIC, veterinary bacteria; format: cell-based; settings: veterinary bacteria (Table 2), read-out: MIC
[31] = tested on: S dublin S7; test: MIC, veterinary bacteria; format: cell-based; settings: veterinary bacteria (Table 2), read-out: MIC

CC(=CC(=O)OCCCC(=O)c1ccccc1)CC1OCC(CC2OC2C(C)C(C)O)C(O)C1O (centres unmarked) [Example 5, 4-Phenylbutan-4-onyl monate A]
MIC [1]: > 80 µg/mL
MIC [2]: 0.1 µg/mL (≈ 0.204 µM)
MIC [3]: 1 µg/mL (≈ 2.04 µM)
concentration at 10 min ([4]; im): 1900 ng/mL
concentration at 20 min ([4]; im): 2300 ng/mL
concentration at 40 min ([4]; im): 1500 ng/mL
concentration at 1 h ([4]; im): 1200 ng/mL
concentration at 2 h ([4]; im): 570 ng/mL
concentration at 3 h ([4]; im): 380 ng/mL
concentration at 4 h ([4]; im): 330 ng/mL
concentration at 6 h ([4]; im): 310 ng/mL
concentration at 8 h ([4]; im): 180 ng/mL
concentration at 24 h ([4]; im): < 200 ng/mL
concentration at 10 min ([4]; po): 1200 ng/mL
concentration at 20 min ([4]; po): 1200 ng/mL
concentration at 40 min ([4]; po): 1200 ng/mL
concentration at 1 h ([4]; po): 860 ng/mL
concentration at 2 h ([4]; po): 230 ng/mL
concentration at 3 h ([4]; po): 160 ng/mL
concentration at 4 h ([4]; po): 80 ng/mL
concentration at 6 h ([4]; po): 50 ng/mL
concentration at 8 h ([4]; po): 30 ng/mL
concentration at 24 h ([4]; po): < 200 ng/mL
MIC [5]: 0.5 µg/mL (≈ 1.02 µM)
MIC [6]: 1 µg/mL (≈ 2.04 µM)
MIC [7]: 0.5 µg/mL (≈ 1.02 µM)
MIC [8]: 0.5 µg/mL (≈ 1.02 µM)
MIC [9]: 0.5 µg/mL (≈ 1.02 µM)
fraction unbound [10]: 0.036
MIC [11]: 0.07 µg/mL (≈ 0.143 µM)
MIC [12]: 0.156 µg/mL (≈ 0.318 µM)
MIC [13]: 10 µg/mL (≈ 20.4 µM)
MIC [14]: 0.625 µg/mL (≈ 1.27 µM)
MIC [15]: 0.156 µg/mL (≈ 0.318 µM)
MIC [16]: 40 µg/mL (≈ 81.5 µM)
MIC [17]: 0.25 µg/mL (≈ 0.51 µM)
MIC [18]: 0.312 µg/mL (≈ 0.636 µM)
MIC [19]: 5 µg/mL (≈ 10.2 µM)
MIC [20]: 0.5 µg/mL (≈ 1.02 µM)
MIC [21]: 1.25 µg/mL (≈ 2.55 µM)
MIC [22]: 0.5 µg/mL (≈ 1.02 µM)
MIC [23]: 0.156 µg/mL (≈ 0.318 µM)
MIC [24]: 80 µg/mL (≈ 163 µM)
MIC [25]: 0.25 µg/mL (≈ 0.51 µM)
MIC [26]: 0.25 µg/mL (≈ 0.51 µM)
MIC [27]: 0.05 µg/mL (≈ 0.102 µM)
MIC [28]: ≤ 0.01 µg/mL
MIC [29]: 0.25 µg/mL (≈ 0.51 µM)
MIC [30]: 80 µg/mL (≈ 163 µM)
MIC [31]: > 80 µg/mL
